US20210317092A1 (BAYER PHARMA AKTIENGESELLSCHAFT, priority 2016, published 2021)

target: T1, human Bradykinin B1 receptor (Homo sapiens, UniProt P46663); experiment: Calcium flux Assay (FLIPR) with recombinant CHO-K1 cells expressing human Bradykinin B1 receptor, in presence (hB1 IC50) or absence (hB1 free IC50) of 0.1% BSA; type: cell-based; conditions: in absence of 0.1% BSA, read-out: hB1 free IC50
T1 construct: host or cells: CHO-K1
T1 sequence (P46663 1-353): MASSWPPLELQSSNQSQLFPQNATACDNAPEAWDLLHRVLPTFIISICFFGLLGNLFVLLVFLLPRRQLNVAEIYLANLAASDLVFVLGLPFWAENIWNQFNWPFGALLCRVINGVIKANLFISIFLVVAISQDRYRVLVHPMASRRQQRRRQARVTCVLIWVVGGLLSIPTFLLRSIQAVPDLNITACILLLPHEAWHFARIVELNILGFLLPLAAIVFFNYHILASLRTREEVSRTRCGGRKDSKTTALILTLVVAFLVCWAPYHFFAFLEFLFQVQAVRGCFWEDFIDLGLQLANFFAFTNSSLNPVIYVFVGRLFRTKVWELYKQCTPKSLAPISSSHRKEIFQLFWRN
Protocol: The potency to inhibit the Bradykinin B1 receptor was determined for the compounds of this invention in a cell-based fluorescent calcium-mobilisation assay. The assay measures the ability of test compounds to inhibit Bradykinin B1 receptor agonist-induced increase of intracellular free Ca^2+ in the cell line expressing Bradykinin B1 receptor. […] The change of the intracellular Ca^2+ concentration is monitored with a fluorescent plate reader FLIPR TETRA® (Molecular Devices).
Calcium flux Assays (FLIPR) with cells expressing human Bradykinin B1 receptor (hB1)
CHO-K1 cell line expressing human Bradykinin B1 receptor was purchased from Euroscreen (Gosselies, Belgium, with reference name hB1-D1). The cells were grown in Nutrient Mixture Ham's F12 (Sigma) containing 10% Foetal bovine serum (Sigma) and 400 μg/mL G418 (Sigma), 5 μg/mL puromycim (Sigma). […]
Cells were seeded in a volume of 50 μL in medium without antibiotics and incubated overnight in a humidified atmosphere with 5% CO2 at 37° C. […] The calcium indicator loaded cells were incubated at 37° C. for 2 hrs. Extracellular dye was then removed and each well was filled with 45 μL of assay buffer. Cell plates were kept in dark until used. Compound examples were assayed at 8 concentrations in triplicate. Serial 10-fold dilutions in 100% DMSO were made at a 100-times higher concentration than the final concentration, and then diluted 1:10 in assay buffer. 5 μL of each diluted compound was added to the well of cell plates (yielding final concentration with 1% DMSO), and incubated for 30 min at 28° C. before the addition of Bradykinin B1 receptor agonist on the FLIPR instrument.
A peptide antagonist Lys-(Des-Arg-Leu)-Bradykinin (Bachem, Brackley) at 20 µM was used to determine the full inhibition as control.
Peak fluorescence was used to determine the response to agonist obtained at each concentration of compound examples by the following equation:
% Response=100*(RFU(compound)−RFU(control))/(RFU(DMSO)−RFU(control)) • RFU means relative fluorescence units. • Control means full inhibition by the peptide antagonist Lys-(Des-Arg-Leu)-Bradykinin at 20 µM.
The response values were plotted against the logarithm of the compound concentrations. The compound examples were tested in triplicates per plate and mean values were plotted in Excel XLfit to determine IC50 values, percentage of maximal inhibition and the Hill slopes.

Row | Structure (SMILES) | IC50
1 | CCOc1ccc(-c2ccc(NC(=O)C3(c4cc(F)ccc4C)CC3)cc2-c2nnn[nH]2)cn1 [Example 254, N-[4-(6-ethoxypyridin-3-yl)-3-(1H-tetrazol-5-yl)phenyl]-1-(5-fluoro-2-methylphenyl)cy-clopropanecar-boxamide] | 309 nM
2 | Cc1nc(C(F)(F)F)cn1-c1ccc(NC(=O)C2(c3ccc(C(F)(F)F)cc3F)CC2)cc1-c1nnn[nH]1 [Example 370, 1-[2-Fluoro-4-(trifluoromethyl)phenyl]-N-{4-[2-methyl-4-(trifluoromethyl)-1H-imidazol-1-yl]-3-(1H-tetrazol-5-yl)phenyl}cyclopro-panecarboxa-mide] | 873 nM
3 | Cc1ccc(C2(C(=O)Nc3ccc(-n4ccc(CC(F)(F)F)n4)c(-c4nnn[nH]4)c3)CC2)c(F)c1 [Example 388, 1-(2-fluoro-4-methylphenyl)-N-{3-(1H-tetrazol-5-yl)-4-[3-(2,2,2-trifluoroethyl)-1H-pyrazol-1-yl]phenyl}cyclopro-panecarboxa-mide] | 33.4 nM
4 | O=C(Nc1ccc(-c2ccnc(F)c2)c(-c2nnn[nH]2)c1)C1(c2cccc(Cl)c2)CC1 [Example 182, 1-(3-chlorophenyl)-N-[4-(2-fluoropyridin-4-yl)-3-(1H-tetrazol-5-yl)phenyl] cyclopropane-carboxamide] | 185 nM
5 | Cc1cc(Cl)ccc1C1(C(=O)Nc2ccc(-c3ccc(C(F)(F)F)nc3)c(-c3nnn[nH]3)c2)CC1 [Example 290, 1-(4-chloro-2-methylphenyl)-N-{3-(1H-tetrazol-5-yl)-4-[6-(trifluoromethyl)pyridin-3-yl]phenyl}cyclopro-panecarboxa-mide] | 135 nM
6 | CC(F)(F)c1ccc(-c2ccc(NC(=O)C3(c4ccc(OC(F)(F)F)cc4F)CC3)cc2-c2nnn[nH]2)cn1 [Example 282, N-{4-[6-(1,1-difluoroethyl)py-ridin-3-yl]-3-(1H-tetrazol-5-yl)phenyl}-1-[2-fluoro-4-(trifluoromethoxy)phenyl]cyclo-propanecarboxa-mide] | 3.49 nM
7 | CC(C)(C)c1ccn(-c2ccc(NC(=O)C3(c4cccc(Cl)c4)CC3)cc2-c2nnn[nH]2)n1 [Example 382, N-[4-(3-tert-Butyl-1H-pyrazol-1-yl)-3-(1H-tetrazol-5-yl)phenyl]-1-(3-chlorophenyl)cyclo-propanecarbox-amide] | 768 nM
8 | O=C(Nc1cc(Cl)c(-c2ccc(C(F)(F)F)nc2)c(-c2nnn[nH]2)c1)C1(c2ccc(C(F)(F)F)cc2F)CC1 [Example 304, N-{3-chloro-5-(1H-tetrazol-5-yl)-4-[6-(trifluoromethyl)pyridin-3-yl]phenyl}-1-[2-fluoro-4-(trifluoromethyl)phenyl]cyclopro-panecarboxamide] | 18.5 nM
9 | CCC(F)(F)c1ccc(-c2ccc(NC(=O)C3(c4ccc(F)c(F)c4)CC3)cc2-c2nnn[nH]2)cn1 [Example 284, 1-(3,4-difluorophenyl)-N-{4-[6-(1,1-difluoropropyl)py-ridin-3-yl]-3-(1H-tetrazol-5-yl)phenyl}cyclopro-panecarboxa-mide] | 15.3 nM
10 | Cc1ccc(C2(C(=O)Nc3ccc(-c4ccc(C(F)F)nc4)c(-c4nnn[nH]4)c3)CC2)c(F)c1 [Example 275, N-{4-[6-(difluoromethyl)pyridin-3-yl]-3-(1H-tetrazol-5-yl)phenyl}-1-(2-fluoro-4-methylphenyl)cy-clopropanecar-boxamide] | 8.48 nM
11 | CCC1CCN(c2ccc(NC(=O)C3(c4cccc(Cl)c4)CC3)cc2-c2nnn[nH]2)C1=O (stereo not drawn) [Example 405, 1-(3-chlorophenyl)-N-[4-(3-ethyl-2-oxopyrrolidin-1-yl)-3-(1H-tetrazol-5-yl)phenyl]cyclopro-panecarboxa-mide] | 1390 nM
12 | Cc1ccc(C2(C(=O)Nc3ccc(-n4cc(C(F)(F)F)cn4)c(-c4nnn[nH]4)c3)CC2)c(F)c1 [Example 368, 1-(2-Fluoro-4-methylphenyl)-N-{3-(1H-tetrazol-5-yl)-4-[4-(trifluoromethyl)-1H-pyrazol-1-yl]phenyl}cyclopro-panecarboxa-mide] | 26 nM
13 | O=C(Nc1ccc(-n2cc(C(F)F)cn2)c(-c2nnn[nH]2)c1)C1(c2ccc(F)c(F)c2)CC1 [Example 353, N-{4-[4-(Difluoromethyl)-1H-pyrazol-1-yl]-3-(1H-tetrazol-5-yl)phenyl}-1-(3,4-difluorophenyl)cy-clopropanecar-boxamide] | 1210 nM
14 | CC(F)(F)c1ccc(-c2ccc(NC(=O)C3(c4ccc(C(F)(F)F)cc4)CC3)cc2-c2nnn[nH]2)cn1 [Example 277, N-{4-[6-(1,1-difluoroethyl)py-ridin-3-yl]-3-(1H-tetrazol-5-yl)phenyl}-1-[4-(trifluoromethyl)phenyl]cyclopro-panecarboxamide] | 3.19 nM
15 | CC(C)(C)c1cnn(-c2ccc(NC(=O)C3(c4ccc(OC(F)(F)F)cc4F)CC3)cc2-c2nnn[nH]2)c1 [Example 411, 1-[2-fluoro-4-(trifluoromethoxy)phenyl]-N-[4-(4-tert-butyl-1H-pyrazol-1-yl)-3-(1H-tetrazol-5-yl)phenyl]cyclopro-pranecarboxa-mide] | 6.84 nM
16 | CCC1CCN(c2ccc(NC(=O)C3(c4ccc(F)c(F)c4)CC3)cc2-c2nnn[nH]2)C1=O (stereo not drawn) [Example 406, 1-(3,4-difluorophenyl)-N-[4-(3-ethyl-2-oxopyrrolidin-1-yl)-3-(1H-tetrazol-5-yl)phenyl]cyclopro-panecarboxa-mide] | 2160 nM

same assay, conditions: in presence of 0.1% BSA, read-out: hB1 IC50

Row | Structure (SMILES) | IC50
17 | CCOc1ccc(-c2ccc(NC(=O)C3(c4cc(F)ccc4C)CC3)cc2-c2nnn[nH]2)cn1 [Example 254, N-[4-(6-ethoxypyridin-3-yl)-3-(1H-tetrazol-5-yl)phenyl]-1-(5-fluoro-2-methylphenyl)cy-clopropanecar-boxamide] | 245 nM
18 | O=C(Nc1ccc(-c2ccnc(F)c2)c(-c2nnn[nH]2)c1)C1(c2cccc(Cl)c2)CC1 [Example 182, 1-(3-chlorophenyl)-N-[4-(2-fluoropyridin-4-yl)-3-(1H-tetrazol-5-yl)phenyl] cyclopropane-carboxamide] | 1350 nM
19 | COc1ccc(-c2ccc(NC(=O)C3(c4ccc(F)cc4F)CC3)cc2-c2nnn[nH]2)cc1OC [Example 2, 1-(2,4-difluorophenyl)-N-[3′,4′-dimethoxy-2-(1H-tetrazol-5-yl)biphenyl-4-yl]cyclopropane carboxamide] | 58.9 nM
20 | COc1ccc(-c2ccc(NC(=O)C3(c4ccc(C(C)(C)C)cc4)CC3)cc2-c2nnn[nH]2)cc1OC [Example 46, 1-(4-tert-butylphenyl)-N-[3′,4′-dimethoxy-2-(1H-tetrazol-5-yl)biphenyl-4-yl]cyclopropane carboxamide] | 141 nM
21 | COc1ccc(-c2ccc(NC(=O)C3(c4cc(C(F)(F)F)ccc4F)CC3)cc2-c2nnn[nH]2)cc1OC [Example 27, N-[3′,4′-dimethoxy-2-(1H-tetrazol-5-yl)biphenyl-4-yl]-1-[2-fluoro-5-(trifluoromethyl)phenyl] cyclopropane-carboxamide] | 51.5 nM
22 | COc1ncc(-c2ccc(NC(=O)C3(c4cccc(Cl)c4)CC3)cc2-c2nnn[nH]2)cn1 [Example 333, 1-(3-chlorophenyl)-N-[4-(2-methoxypyrimidin-5-yl)-3-(1H-tetrazol-5-yl)phenyl]cyclopro-panecarboxa-mide] | 420 nM
23 | COc1ccc(-c2ccc(NC(=O)C3(CC(C)C)CC3)cc2-c2nnn[nH]2)cc1OC [Example 55, N-[3′,4′-dimethoxy-2-(1H-tetrazol-5-yl)biphenyl-4-yl]-1-isobutyl-cyclopropane-carboxamide] | 2060 nM
24 | COc1ccc(-c2ccc(NC(=O)C3(C4CCC(C)CC4)CC3)cc2-c2nnn[nH]2)cc1 (single isomer, unassigned) [Example 113, N-[4′-methoxy-2-(1H-tetrazol-5-yl)biphenyl-4-yl]-1-(4-methylcyclo-hexyl) cyclopropane carboxamide] | 1200 nM
25 | COc1ccc(-c2ccc(NC(=O)C3(c4ccc(F)c(Cl)c4)CC3)cc2-c2nnn[nH]2)cc1OC [Example 14, 1-(3-chloro-4-fluorophenyl)-N-[3′,4′-dimethoxy-2-(1H-tetrazol-5-yl)biphenyl-4-yl]cyclopropane carboxamide] | 101 nM
26 | COc1ccc(-c2ccc(NC(=O)C3(c4cccc(OC(F)F)c4)CC3)cc2-c2nnn[nH]2)cc1OC [Example 22, 1-[3-(difluoromethoxy)phenyl]-N-[3′,4′-dimethoxy-2-(1H-tetrazol-5-yl)biphenyl-4-yl]cyclopropane carboxamide] | 212 nM
27 | COc1ccc(C2(C(=O)Nc3ccc(-c4ccc(OC)c(OC)c4)c(-c4nnn[nH]4)c3)CC2)cc1 [Example 47, N-[3′,4′-dimethoxy-2-(1H-tetrazol-5-yl)biphenyl-4-yl]-1-(4-methoxyphenyl) cyclopropane-carboxamide] | 180 nM
